Measurements: PMC9691366, “Modulating the pharmacokinetic profile of Actinium-225-labeled macropa-derived radioconjugates by dual targeting of PSMA and albumin” (Theranostics, 2022)
Marks after values point to notes of the source that are not given here.

How the values were obtained:
[1] = system: LNCaP cells; experiment: Clonogenic survival assay; type: cell-based, human; conditions: for inhibition of colony formation: 1 h exposure; for EC50 for 1 h treatment: clonogenic survival of LNCaP cells, 95% confidence interval in brackets
Experimental: Figure 3 Clonogenic survival of LNCaP cells after treatment with [^225Ac]Ac-mcp-M-alb-PSMA or [^225Ac]Ac-mcp-D-alb-PSMA for (A) 1 h or (B) 4 h, respectively. Cells were exposed to different activity concentrations of 225Ac-labeled PSMA conjugates for the indicated treatment time and thereafter supplemented with fresh medium. Eight days later, colonies formed were stained and counted by digital analysis. Data points represent the mean colony number of three samples, normalized to values obtained for the untreated reference samples.
Colony formation of LNCaP cells upon exposure to increasing activity concentrations of both ^225Ac-radioconjugates was analyzed as previously reported with slight modifications. Briefly, 6000 LNCaP cells were seeded in 6-well microplates (Greiner Bio-One GmbH, Frickenhausen, Germany) and cultivated overnight to allow cell adhesion. The cell culture medium was replaced by serum-free RPMI-1640 medium (2 mL/well) and the microplates were further incubated at 37 °C. After 1 h, five different activity concentrations (0.05, 0.5, 1, 5, and 50 kBq/mL) of the ^225Ac-radioconjugates were added in triplicate. After 1 or 4 h of incubation at 37 °C, the supernatants were replaced by fresh RPMI-1640 medium with 10% FCS (2 mL/well) and plates were incubated at 37 °C for 8 d. Finally, the cell culture medium was discarded and colonies were stained with 0.5% crystal violet in 50% methanol (1 mL/well) for 30 min, after which the plates were rinsed three times with deionized water and subsequently air-dried. The plates were scanned with an Amersham Typhoon 5 Scanner (Cytiva Europe GmbH, Freiburg, Germany) and the colonies were counted using the Image-Quant TL software (Version 8.1, Cytiva Europe GmbH, Freiburg, Germany).

[2] = biological target: PSMA (Homo sapiens, UniProt Q04609); experiment: Saturation binding studies on PSMA-positive LNCaP cells; conditions: 95% confidence interval in brackets; for Kd: on ice
Experimental: The cell binding behavior of the ^225Ac-labeled, 4-(p-iodophenyl)butyrate-containing PSMA radioconjugates [^225Ac]Ac-mcp-M-alb-PSMA and [^225Ac]Ac-mcp-D-alb-PSMA was analyzed in saturation binding studies using PSMA-positive LNCaP cells.
Figure 2 Saturation binding curves for (A) [^225Ac]Ac-mcp-M-alb-PSMA and (B) [^225Ac]Ac-mcp-D-alb-PSMA. Nonspecific binding was determined in the presence of 500 µM unlabeled PSMA-617. Specific binding was calculated as the difference between total and nonspecific binding (n = 3 for each data point).
Saturation binding studies to determine the equilibrium dissociation constants (KD) and the maximum binding capacities (Bmax) were performed as described elsewhere. In short, 30000 LNCaP cells were seeded in 48-well microplates (Greiner Bio-One GmbH, Frickenhausen, Germany) and cultivated for 48 h to allow cell adhesion and growth. During the experiment, cells were kept on ice and all reagents were added ice-cold. The cell culture medium was replaced by PBS (200 µL/well) and the microplates were preincubated for 30 min at 4 °C. The ^225Ac-radioconjugates were added to the wells in a volume of 200 µL at different concentrations (15 pM to 500 nM). The nonspecific binding was assessed in parallel by blocking the LNCaP cells with a 1000-fold excess of unlabeled PSMA-617. After incubation of the microplates for 90 min on ice, the cells were washed three times with ice-cold PBS. The cells were lysed in 0.1 M NaOH containing 1% (w/v) sodium dodecyl sulfate. The activity of cell lysates was measured using an automatic gamma counter (Hidex Deutschland Vertrieb GmbH, Mainz, Germany).

[3] = type: physicochemical; conditions: pH 7.4
Experimental: 1-Octanol/water distribution coefficients (log D) were determined by applying the shake-flask-method. 20 µL of the reaction mixture were poured into 580 µL of 5xPBS (pH 7.4). Afterwards, 600 µL of 1-octanol was added and the two-phase-system was vigorously stirred for 5 min. Then, the samples were centrifuged, the phases were separated and the count rates were measured using ISOMED2160 sodium iodide crystal detector (at least 4 h after phase separation due to initial decay products).

[4] = system: LNCaP tumor-bearing SCID mice; type: in vivo, mouse
Experimental: Formalin-fixed and paraffin-embedded mouse tissues were cut in 5 µm sections and immunostained with appropriate antibodies according to standard techniques as well as with standard H&E staining. Antigen retrieval was performed in citrate buffer (pH 6) for all primary antibodies: Ki-67 (clone MIB1, DAKO; dilution 1:200), γH2AX (clone JBW301, Millipore; dilution 1:2500) and PSMA (clone YPSMA-1, Abcam; dilution 1:1000). The presence or absence of necrosis and its percentage in the tumor samples were evaluated by experienced pathologist. […] The data were analyzed using Kruskal-Wallis test followed by Dunn post hoc test using GraphPad Prism version 7.05 (GraphPad Software, San Diego, CA, USA).

[5] = over 7 days
Experimental: The final conjugates mcp-M-alb-PSMA and mcp-D-alb-PSMA were successfully radiolabeled with ^225Ac at a concentration down to 10^-6 M with radiochemical conversions of higher than 99% within 15 min at room temperature and a resulting molar activity of 1 MBq/nmol. The radiolabeled actinium complexes [^225Ac]Ac-mcp-M-alb-PSMA and [^225Ac]Ac-mcp-D-alb-PSMA were characterized regarding decomplexation (by radio-TLC) and degradation (by radio-HPLC). […] Log D values for [^225Ac]Ac-mcp-M-alb-PSMA and [^225Ac]Ac-mcp-D-alb-PSMA were determined at pH 7.4 to be ‑2.4 and -1.7, respectively.
^225Ac was commercially supplied by ITM as [^225Ac]AcCl3. Radiolabeling was performed using 100 kBq ^225Ac, the respective ligand stem solution (10^-2 M - 10^-6 M) to reach the required ligand concentration (10^-3 M - 10^-7 M), the necessary amount of 2,5-dihydroxybenzoic acid (final concentration 0.1 M) and a volume of 0.2 M NH4OAc (pH 6) to adjust a total volume of 100 µL. […]
Once the labeling reaction was finished, samples were taken out and the ^225Ac-radioconjugates were analyzed via TLC (two systems: 1 - 0.05 M EDTA (pH 7) on silica plates; 2 - 70/30 acetonitrile/H2O on alugram RP-CN plates) and analytical HPLC on a Jasco HPLC system with GABI analyzer (Elysia Raytest) for gamma detection on a Phenomenex Phenyl-Hexyl column in water/acetonitrile (0.1% TFA each).

Chain of PSMA (Q04609 whole entry): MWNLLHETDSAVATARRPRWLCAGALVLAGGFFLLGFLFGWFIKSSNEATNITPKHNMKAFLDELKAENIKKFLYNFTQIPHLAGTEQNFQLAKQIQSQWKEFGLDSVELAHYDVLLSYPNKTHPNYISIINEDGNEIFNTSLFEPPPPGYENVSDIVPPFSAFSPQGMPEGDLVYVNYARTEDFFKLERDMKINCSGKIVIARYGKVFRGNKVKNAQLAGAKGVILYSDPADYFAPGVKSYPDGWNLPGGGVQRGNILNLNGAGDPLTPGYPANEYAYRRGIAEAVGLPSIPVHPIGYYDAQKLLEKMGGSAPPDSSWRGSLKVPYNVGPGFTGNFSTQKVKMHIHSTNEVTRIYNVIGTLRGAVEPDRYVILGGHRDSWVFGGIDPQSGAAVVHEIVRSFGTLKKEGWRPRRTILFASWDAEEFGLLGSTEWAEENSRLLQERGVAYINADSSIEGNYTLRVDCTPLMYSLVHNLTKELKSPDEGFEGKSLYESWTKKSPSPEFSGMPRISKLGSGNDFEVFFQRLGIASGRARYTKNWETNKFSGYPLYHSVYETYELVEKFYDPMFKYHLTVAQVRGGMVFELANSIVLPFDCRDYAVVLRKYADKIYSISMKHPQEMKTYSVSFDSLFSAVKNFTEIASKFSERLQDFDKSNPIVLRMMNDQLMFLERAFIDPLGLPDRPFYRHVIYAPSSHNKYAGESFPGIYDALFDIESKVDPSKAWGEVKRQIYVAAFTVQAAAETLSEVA

O=C(O)CC[C@H](NC(=O)N[C@@H](CCCCNC(=O)[C@H](Cc1ccc2ccccc2c1)NC(=O)[C@H]1CC[C@H](CNC(=O)[C@H](CCCCn2cc(COc3cc(CN4CCOCCOCCN(Cc5cc(OCc6cn(CCCC[C@H](NC(=O)[C@H](CCC(=O)O)NC(=O)CCCc7ccc(I)cc7)C(=O)NC[C@H]7CC[C@H](C(=O)N[C@@H](Cc8ccc9ccccc9c8)C(=O)NCCCC[C@H](NC(=O)N[C@@H](CCC(=O)O)C(=O)O)C(=O)O)CC7)nn6)cc(C(=O)O)n5)CCOCCOCC4)nc(C(=O)O)c3)nn2)NC(=O)[C@H](CCC(=O)O)NC(=O)CCCc2ccc(I)cc2)CC1)C(=O)O)C(=O)O [[^225Ac]Ac-mcp-D-alb-PSMA, metal not drawn]
inhibition of colony formation ([1]; 0.05 kBq/mL): about 50% | inhibition of colony formation ([1]; 0.5 kBq/mL): virtually abrogated clonogenic activity | EC50 for 1 h treatment [1]: 0.0519 (0.0353 to 0.0753)^# kBq/mL | Bmax [2]: 1.96 (1.89 to 2.04)^# pmol/mg of protein | Kd [2]: 11.6 nM | logD [3]: -1.7 | H&E stain of tumor tissue (necrosis) ([4]; 72, 120 and 168 h p.i.): necrotic lesions in the group 72 h p.i. | average γH2AX histoscore, kidney ([4]; mouse, in vivo): 99 | ^225Ac release (decomplexation, radio-TLC) [5]: did not show any ^225Ac release

O=C(O)CC[C@H](NC(=O)N[C@@H](CCCCNC(=O)[C@H](Cc1ccc2ccccc2c1)NC(=O)[C@H]1CC[C@H](CNC(=O)[C@H](CCCCn2cc(COc3cc(CN4CCOCCOCCN(Cc5cccc(C(=O)O)n5)CCOCCOCC4)nc(C(=O)O)c3)nn2)NC(=O)[C@H](CCC(=O)O)NC(=O)CCCc2ccc(I)cc2)CC1)C(=O)O)C(=O)O [[^225Ac]Ac-mcp-M-alb-PSMA, metal not drawn]
inhibition of colony formation ([1]; 0.5 kBq/mL): about 50% | inhibition of colony formation ([1]; 5 kBq/mL): almost complete inhibition of colony formation | EC50 for 1 h treatment [1]: 0.5233 (0.4010 to 0.6767)^# kBq/mL | Bmax [2]: 0.46 (0.43 to 0.49)^# pmol/mg of protein | Kd [2]: 23.4 nM | logD [3]: -2.4 | Ki67 expression in tumor (cellular proliferation) ([4]; compared to untreated controls): did not show any significant decrease in proliferation | γH2AX staining of tumor tissue (DNA damage) ([4]; compared to untreated controls): significant DNA damage in tumor cells | H&E stain of liver tissue (necrosis) ([4]; mouse, in vivo): significant necrosis | average γH2AX histoscore, kidney ([4]; mouse, in vivo): 62 | ^225Ac release (decomplexation, radio-TLC) [5]: did not show any ^225Ac release
